{"source": "patent US11026901B2", "about": "“Treatment or prevention of cardiovascular events via the administration of a colchicine derivative” (Murray and Poole Enterprises, LTD., priority 2012, dated 2021)", "system": "patients with angiographically proven, clinically stable coronary disease", "assay": "LoDoCo trial: cardiovascular events with colchicine 0.5 mg/day added to standard secondary prevention therapy", "format": "in vivo, human", "method": "We employed a PROBE [Prospective Randomized, Open, Blinded End-point] design\nAll patients signed informed consent before randomization.\nAll other treatments were continued as usual.\nThe secondary outcomes were analysed similarly.", "key": {"[1]": {"settings": "intention-to-treat, in each group"}, "[2]": {"settings": "intention-to-treat, treatment [n = 282] vs control [n = 250]"}, "[3]": {"settings": "on-treatment analysis, treatment [n = 243] vs control [n = 250]"}}}
{"smiles": "COc1cc2c(c(OC)c1OC)-c1ccc(OC)c(=O)cc1[C@@H](NC(C)=O)CC2", "note": "[colchicine]", "values": [{"measurement": "risk of a cardiovascular event, including an ACS, out of hospital cardiac arrest and non-cardio-embolic ischemic stroke", "setting": "colchicine 0.5 mg/day added to standard therapy, stable coronary disease", "result": "significantly reduces"}, {"measurement": "patients who died", "setting": "colchicine group (ten in the control group)", "result": 4, "unit": "patients"}, {"measurement": "Primary Outcome (composite ACS, out of hospital cardiac arrest or non-cardio-embolic ischemic stroke), patients with event", "setting": "intention-to-treat, colchicine 0.5 mg/day [n = 282], median follow up 36 months", "result": 15, "unit": "n"}, {"measurement": "number needed to treat, primary outcome", "setting": "intention-to-treat, colchicine 0.5 mg/day vs control", "result": 11}, {"measurement": "stent related ACS with evidence of acute stent thrombosis, patients", "setting": "[1]", "result": 2}, {"measurement": "stent related ACS with evidence of significant in-stent stenosis, patients", "setting": "[1]", "result": 2}, {"measurement": "Acute Coronary Syndrome, HR; 95% CI", "setting": "[2]", "result": 0.33}, {"measurement": "Non-Stent Related ACS, HR; 95% CI", "setting": "[2]", "result": 0.26}, {"measurement": "Non-Stent Related AMI, HR; 95% CI", "setting": "[2]", "result": 0.25}, {"measurement": "Non-Stent Related UA, HR; 95% CI", "setting": "[2]", "result": 0.27}, {"measurement": "Primary Outcome, HR 95% CI", "setting": "intention-to-treat, treatment [n = 282] vs control [n = 250], cox proportional hazards", "result": 0.33}, {"measurement": "Primary Outcome, patients with event", "setting": "on-treatment analysis (tolerant and compliant beyond first month), colchicine 0.5 mg/day [n = 243]", "result": 11, "unit": "n"}, {"measurement": "Acute Coronary Syndrome, HR; 95% CI", "setting": "[3]", "result": "0.28 (0.13, 0.58)"}, {"measurement": "Non-Cardio-Embolic Stroke, HR; 95% CI", "setting": "[3]", "result": "0.27 (0.03, 2.42)"}, {"measurement": "Non-Stent Related ACS, HR; 95% CI", "setting": "[3]", "result": "0.21 (0.09, 0.50)"}, {"measurement": "Non-Stent Related AMI, HR; 95% CI", "setting": "[3]", "result": "0.30 (0.10, 0.91)"}, {"measurement": "Non-Stent Related UA, HR; 95% CI", "setting": "[3]", "result": "0.13 (0.03, 0.57)"}, {"measurement": "OOH Cardiac Arrest, HR; 95% CI", "setting": "[3]", "result": "0.55 (0.05, 6.03)"}]}
